Measurements taken from the NIST ThermoML archive (doi:10.1021/acs.jced.6b00354).

Assay: mn = molality of the nth substance listed, in mol/kg
Conditions: 100 kPa, Liquid, Alternating current cell with electrodes

CC(=O)N(C)C [N,N-dimethylethanamide] + CCCCn1cc[n+](C)c1.F[B-](F)(F)F
electrical conductivity [S/m]
Conditions | 283.15 K | 288.15 K | 293.15 K | 298.15 K | 303.15 K | 308.15 K | 313.15 K | 318.15 K
m2 = 0.0003956 | 0.0021612 | 0.0023283 | 0.0025019 | 0.0026803 | 0.0028647 | 0.0030385 | 0.00322 | 0.0034051
m2 = 0.000671 | 0.0036275 | 0.0039047 | 0.004196 | 0.0044945 | 0.0047984 | 0.0050953 | 0.0053975 | 0.0057039
m2 = 0.0009718 | 0.0051999 | 0.0056027 | 0.0060224 | 0.0064451 | 0.0068768 | 0.0073024 | 0.0077338 | 0.0081707
m2 = 0.001959 | 0.010227 | 0.011022 | 0.011831 | 0.012666 | 0.013508 | 0.014339 | 0.015175 | 0.01603
m2 = 0.002976 | 0.01525 | 0.016416 | 0.017623 | 0.018852 | 0.020112 | 0.021302 | 0.022571 | 0.023828
m2 = 0.003778 | 0.019105 | 0.020563 | 0.022088 | 0.023628 | 0.025189 | 0.026664 | 0.028258 | 0.029817
m2 = 0.005993 | 0.02947 | 0.03171 | 0.034016 | 0.036401 | 0.038756 | 0.041015 | 0.043439 | 0.045784
m2 = 0.007976 | 0.03841 | 0.041353 | 0.044368 | 0.047396 | 0.050472 | 0.053564 | 0.056503 | 0.059519
m2 = 0.009999 | 0.047279 | 0.050928 | 0.054557 | 0.058325 | 0.062033 | 0.065747 | 0.069408 | 0.073087
m2 = 0.01203 | 0.055972 | 0.060177 | 0.064588 | 0.069017 | 0.073419 | 0.077654 | 0.082086 | 0.086346
m2 = 0.01408 | 0.064541 | 0.069536 | 0.074489 | 0.079576 | 0.084557 | 0.089517 | 0.094529 | 0.099432
m2 = 0.01598 | 0.072339 | 0.07784 | 0.083519 | 0.089184 | 0.094781 | 0.10031 | 0.10588 | 0.1113
